The values that follow come from patent US20030190365A1, “Methods for wet granulating azithromycin” (Pfizer Inc., priority 2001, published 2003).

Data set [1] in a line: Equilibrium solubility of azithromycin forms in granulating liquids (HPLC-UV).
Procedure: Equilibrium solubility of several different forms of azithromycin, in typical liquids used in the wet granulation process, were evaluated as follows.
Excess azithromycin was added as a solid into each respective test liquid and mixed by rotation using a Labquake Rotating Mixer® at 7 revolutions per minute (RPM). Duplicate samples were run for each condition. Excess drug material was added to achieve saturation. Once saturation was achieved, the samples were rotated for 48 hours with sampling intervals at 24 and 48 hours. Azithromycin form A was also set up for a 7-day equilibrium solubility analysis to assure equilibrium beyond 48 hours. At each sampling interval, approximately half (1 mL) the sample was transferred into a polyethylene microcentrifuge tube and centrifuged at 15,000 RPM for 20 minutes using the Eppendorf Centrifuge Model # 5403. Following centrifugation, the liquid layer was pipetted and diluted with 0.04 M potassium phosphate dibasic (pH=8): acetonitrile (4:6). Dilutions were made accordingly until the peak area fell into the linear curve range of the standards (0.15 to 1.5 mgA/mL). Samples were run by HPLC (HP-1100 system, Agilent Technologies, Wilmington, Del.) with UV detection at 210 nm. The sample data was calculated by linear regression against the standard curve based on azithromycin form A.
The nature of data set [2]: As-is and tapped density of bulk drug and dried granulations (Van Kel tap density tester). It is filed as physicochemical. How it is done:
Form F bulk drug contained soft lumps and was sieved through an 18 mesh (1.0 mm) screen before use. A small-scale granulation process, as described in Example 1, was used for samples of 5 g of bulk drug. The liquid was pipetted in 0.1 to 1.0 mL increments until a granulation was formed, based on visual observations, followed by wet mixing for 3-5 minutes. All three runs formed wet granulations, but the run with water was much less granular than the non-aqueous runs. All of the samples were dried overnight at 40° C. for 16 hours. […] The two nonaqueous liquid runs appeared to be only ˜50% granules, and the water run was only slightly granular.
Samples of the dried granules were then hand sieved through an 18 mesh screen and the density was determined, as shown above in Table 2C. SEM's were taken of dried samples both before and after sieving was done to aid in the evaluation.
A small-scale process, as described in Example 1, was used to granulate the formulations. The ingredients (except for the lubricant), to make a 10 g lot for each run, were pre-blended for 5 minutes on a Turbula Shaker-Mixer (Willy A. Bachofen AG Maschinenfabrik, Basel, Switzerland). The blend was granulated per Example 1. The liquid was pipetted in 0.1 to 1.0 mL increments and mixed for 2.5-6 minutes until a granulation was formed. All of the samples were dried overnight at 40° C. for 16 hours. The amount of densification varied depending on the excipients used in the formulation. […] Tablets were not made from these four granulation runs because of the poor quality.
A small-scale process, as described in Example 1, was used to granulate the formulations into 10 g lots. The liquid was pipetted in 0.1 to 1.0 mL increments and mixed for 2-5 minutes until a granulation was formed. All of the samples were dried overnight at 40° C. for 16 hours in a forced hot air oven and then hand sieved through a 18 mesh (1.0 mm) screen.
A small-scale process, as described in Example 1, was used to granulate the formulations. The granulating liquid was pipetted in 0.1 to 1.0 mL increments and mixed with the 9.3 g of the dry blend for 3-6 minutes until a granulation was formed. The granulating amount, of 30, 27 and 29%, was used for the PVP granulating liquid in ethanol, water and 50:50 ethanol:water, respectively. The amount of liquid used was 2.5-3 mL, therefore the amount of solid (PVP) added in solution based on the 10 g final batch size was from about 0.25 to 0.3%. All of the samples were dried overnight at 40° C. for 16 hours and then hand sieved through a 16 mesh (1.2 mm) screen.
A small-scale process, as described in Example 1, was used to granulate the formulations to make 10 g lots. Each formulation was pre-blended for 5 minutes on a Turbula Shaker-Mixer (Willy A. Bachofen AG Maschinenfabrik, Basel, Switzerland) for 5 minutes. The blend was then granulated as described in Example 1. The liquid was pipetted in 0.1 to 1.0 mL increments and mixed for 4-8 minutes until a granulation was formed. All of the samples were dried overnight at 40° C. for 16 hours and then hand sieved through a 16 mesh (1.2mm) screen. The densities of the granulations were then compared to the bulk drug and to each other. The amount of densification varied depending on the components used in the formulation.

The mark [3] stands for this setting: 24 hours, EtOH 33% in water v/v.
[4] abbreviates: 24 hours, EtOH 67% in water v/v.
Where [5] appears, read: 48 hours, EtOH 33% in water v/v.
Where [6] appears, read: 48 hours, EtOH 67% in water v/v.

`CC[C@H]1OC(=O)[C@H](C)[C@@H](O[C@H]2C[C@@](C)(OC)[C@@H](O)[C@H](C)O2)[C@H](C)[C@@H](O[C@@H]2O[C@H](C)C[C@H](N(C)C)[C@H]2O)[C@](C)(O)C[C@@H](C)CN(C)[C@H](C)[C@@H](O)[C@]1(C)O` [form A, 9-deoxo-9a-aza-9a-methyl-9a-homoerythromycin A, reference compound]: the solubility in data set [1] (setting [3]) came to 1.30 mgA/mL; in data set [1] (setting [4]), 27.48 mgA/mL; in data set [1] (24 hours, EtOH 100% neat), 219.74 mgA/mL; in data set [1] (24 hours, IPA 33% in water v/v) it was 5.50 mgA/mL; in data set [1] (24 hours, IPA 67% in water v/v), 68.71 mgA/mL; in data set [1] (24 hours, IPA 100% neat), 291.91 mgA/mL. The solubility in data set [1] (24 hours, water) is 0.10 mgA/mL; in data set [1] (setting [5]), 1.23 mgA/mL; in data set [1] (setting [6]), 27.25 mgA/mL; in data set [1] (48 hours, EtOH 100% neat), 211.59 mgA/mL; in data set [1] (48 hours, IPA 33% in water v/v) it was 5.25 mgA/mL; in data set [1] (48 hours, IPA 67% in water v/v), 67.70 mgA/mL. The solubility in data set [1] (48 hours, IPA 100% neat) is listed as 280.91 mgA/mL; in data set [1] (48 hours, water), 0.14 mgA/mL; in data set [1] (7 days, EtOH 33% in water v/v) it was 1.27 mgA/mL; in data set [1] (7 days, EtOH 67% in water v/v), 27.02 mgA/mL; in data set [1] (7 days, EtOH 100% neat) it was 214.76 mgA/mL; in data set [1] (7 days, IPA 33% in water v/v), 5.28 mgA/mL. The solubility in data set [1] (7 days, IPA 67% in water v/v) stood at 66.63 mgA/mL; in data set [1] (7 days, IPA 100% neat), 286.45 mgA/mL; in data set [1] (7 days, water), 0.11 mgA/mL. Further, in data set [1] (relative to the other forms), the “solubility in pure water compared to all other forms” value is given as “approximately one-half”. Further, the “solubility in the isopropanol solutions compared to all other forms” value in data set [1] (relative to the other forms) was “lower solubility”.

On to `CCC1OC(=O)C(C)C(O[C@H]2C[C@@](C)(OC)[C@@H](O)C(C)O2)C(C)[C@@H](OC2OC(C)CC(N(C)C)[C@H]2O)[C@@](C)(O)C[C@@H](C)CN(C)[C@H](C)[C@@H](O)[C@]1(C)O` (stereo partly drawn) [form F, azithromycin monohydrate hemi-ethanol solvate], for which the “As is Density” value is listed as 0.290 g/cc in data set [2] (Example 2, form F, Table 2A) and 0.290 g/cc in data set [2] (Example 2, form F, Table 2C). For the same compound, the “Tapped Density” value in data set [2] (Example 2, form F, Table 2A, 2000 taps) is 0.439 g/cc; in data set [2] (Example 2, form F, Table 2C), 0.439 g/cc; in data set [2] (Example 3) it was 0.439 g/cc; in data set [2] (Example 6, form F), 0.439 g/cc; in data set [2] (Example 7, form F) it was 0.439 g/cc. For the same compound, the “As Is Density” value turned out to be 0.290 g/cc in data set [2] (Example 3); 0.290 g/cc in data set [2] (Example 6, form F); 0.290 g/cc in data set [2] (Example 7, form F). For the same compound, the solubility in data set [1] (setting [3]) was determined as 0.98 mgA/mL; in data set [1] (setting [4]), 27.86 mgA/mL; in data set [1] (24 hours, EtOH 100% neat) it was 228.34 mgA/mL; in data set [1] (24 hours, IPA 33% in water v/v), 10.04 mgA/mL; in data set [1] (24 hours, IPA 67% in water v/v), 94.09 mgA/mL; in data set [1] (24 hours, IPA 100% neat), 367.02 mgA/mL. Besides, the solubility in data set [1] (24 hours, water) came out at 0.19 mgA/mL; in data set [1] (setting [5]), 1.06 mgA/mL; in data set [1] (setting [6]) it was 27.56 mgA/mL; in data set [1] (48 hours, EtOH 100% neat), 229.87 mgA/mL; in data set [1] (48 hours, IPA 33% in water v/v), 9.41 mgA/mL; in data set [1] (48 hours, IPA 67% in water v/v) it was 79.90 mgA/mL. Moreover, the solubility in data set [1] (48 hours, IPA 100% neat) is reported as 362.64 mgA/mL; in data set [1] (48 hours, water), 0.21 mgA/mL.

As for `CC[C@H]1OC(=O)[C@H](C)[C@@H](O[C@H]2C[C@@](C)(OC)[C@@H](O)[C@H](C)O2)[C@H](C)[C@@H](O[C@@H]2O[C@H](C)C[C@H](N(C)C)[C@H]2O)[C@](C)(O)C[C@@H](C)CN(C)[C@H](C)[C@@H](O)[C@]1(C)O` [form G, azithromycin sesquihydrate], in data set [2] (Example 3, sesquihydrate), the “As Is Density” value came out at 0.290 g/cc and the “Tapped Density” value stood at 0.450 g/cc.

As to `CCC1OC(=O)C(C)C(O[C@H]2C[C@@](C)(OC)[C@@H](O)C(C)O2)C(C)[C@@H](OC2OC(C)CC(N(C)C)[C@H]2O)[C@@](C)(O)C[C@@H](C)CN(C)[C@H](C)[C@@H](O)[C@]1(C)O` (stereo partly drawn) [form J, azithromycin monohydrate hemi-n-propanol solvate], the “As Is Density” value in data set [2] (Example 3) is reported as 0.377 g/cc. Also, the “Tapped Density” value in data set [2] (Example 3) stood at 0.649 g/cc. For the same compound, the solubility in data set [1] (setting [3]) was 0.95 mgA/mL; in data set [1] (setting [4]), 27.15 mgA/mL; in data set [1] (24 hours, EtOH 100% neat) it was 224.77 mgA/mL; in data set [1] (24 hours, IPA 33% in water v/v) it was 9.81 mgA/mL; in data set [1] (24 hours, IPA 67% in water v/v), 113.05 mgA/mL; in data set [1] (24 hours, IPA 100% neat) it was 315.94 mgA/mL. For the same compound, the solubility is given as 0.18 mgA/mL in data set [1] (24 hours, water); 0.99 mgA/mL in data set [1] (setting [5]); 26.30 mgA/mL in data set [1] (setting [6]); 208.99 mgA/mL in data set [1] (48 hours, EtOH 100% neat); 9.40 mgA/mL in data set [1] (48 hours, IPA 33% in water v/v); 106.51 mgA/mL in data set [1] (48 hours, IPA 67% in water v/v). For the same compound, the solubility came out at 295.88 mgA/mL in data set [1] (48 hours, IPA 100% neat) and 0.22 mgA/mL in data set [1] (48 hours, water).

Regarding `CCC1OC(=O)C(C)C(O[C@H]2C[C@@](C)(OC)[C@@H](O)C(C)O2)C(C)[C@@H](OC2OC(C)CC(N(C)C)[C@H]2O)[C@@](C)(O)C[C@@H](C)CN(C)[C@H](C)[C@@H](O)[C@]1(C)O` (stereo partly drawn) [form M, azithromycin monohydrate hemi-isopropanol solvate], in data set [2] (Example 3), the “As Is Density” value was determined as 0.391 g/cc. Also, the “Tapped Density” value in data set [2] (Example 3) was found to be 0.514 g/cc. Moreover, the solubility in data set [1] (setting [3]) is listed as 0.97 mgA/mL; in data set [1] (setting [4]), 25.86 mgA/mL; in data set [1] (24 hours, EtOH 100% neat) it was 211.38 mgA/mL; in data set [1] (24 hours, IPA 33% in water v/v), 8.56 mgA/mL; in data set [1] (24 hours, IPA 67% in water v/v), 110.67 mgA/mL; in data set [1] (24 hours, IPA 100% neat) it was 333.39 mgA/mL. Also, the solubility came out at 0.22 mgA/mL in data set [1] (24 hours, water); 1.10 mgA/mL in data set [1] (setting [5]); 27.00 mgA/mL in data set [1] (setting [6]); 222.38 mgA/mL in data set [1] (48 hours, EtOH 100% neat); 8.92 mgA/mL in data set [1] (48 hours, IPA 33% in water v/v); 82.95 mgA/mL in data set [1] (48 hours, IPA 67% in water v/v). Also, the solubility in data set [1] (48 hours, IPA 100% neat) is reported as 353.19 mgA/mL; in data set [1] (48 hours, water), 0.21 mgA/mL; in data set [1] (72 hours, IPA 67% in water v/v), 71.35 mgA/mL; in data set [1] (72 hours, IPA 100% neat), 322.55 mgA/mL.

As to `CC[C@H]1OC(=O)[C@H](C)[C@@H](O[C@H]2C[C@@](C)(OC)[C@@H](O)[C@H](C)O2)[C@H](C)[C@@H](O[C@@H]2O[C@H](C)C[C@H](N(C)C)[C@H]2O)[C@](C)(O)C[C@@H](C)CN(C)[C@H](C)[C@@H](O)[C@]1(C)O` [form N, azithromycin], in data set [2] (Example 3), the “As Is Density” value is listed as 0.450 g/cc. Also, the “Tapped Density” value in data set [2] (Example 3) is 0.600 g/cc. Further, the solubility in data set [1] (setting [3]) is reported as 1.06 mgA/mL; in data set [1] (setting [4]) it was 27.33 mgA/mL; in data set [1] (24 hours, EtOH 100% neat), 228.14 mgA/mL; in data set [1] (24 hours, IPA 33% in water v/v), 9.23 mgA/mL; in data set [1] (24 hours, IPA 67% in water v/v) it was 113.08 mgA/mL; in data set [1] (24 hours, IPA 100% neat) it was 334.22 mgA/mL. Also, the solubility is given as 0.20 mgA/mL in data set [1] (24 hours, water); 1.11 mgA/mL in data set [1] (setting [5]); 27.20 mgA/mL in data set [1] (setting [6]); 225.78 mgA/mL in data set [1] (48 hours, EtOH 100% neat); 7.36 mgA/mL in data set [1] (48 hours, IPA 33% in water v/v); 106.48 mgA/mL in data set [1] (48 hours, IPA 67% in water v/v). In addition, the solubility in data set [1] (48 hours, IPA 100% neat) was 322.91 mgA/mL; in data set [1] (48 hours, water), 0.24 mgA/mL.
